Values quoted from earlier work in patent US20260263382A1, “TRANSDERMAL PATCH COMPRISING RASAGILINE MESYLATE AND PREPARATION METHOD THEREFOR” (priority 2023, published 2026).
Where a name gives a salt, the structure may show the parent alone. Read-outs that look alike come from different tables or passages of the source.

Key:
[1] = carried in polyacrylate or silicone pressure-sensitive adhesives or polyvinyl alcohol, free base under weakly alkaline conditions
[2] = oral preparations
[3] = oral administration at 20 mg/d for 2 weeks

Structure (SMILES)	Main drug content [1]	Bioavailability [2] [%]	Adverse reaction [3]	Main drug content ([1]; listed as rasagiline free base)
C#CCN[C@@H]1CCc2ccccc21 [rasagiline mesylate]	no change			
C#CCN[C@@H]1CCc2ccccc21 [Rasagiline]		36	no serious adverse reaction	declines rapidly, even with complete degradation
